Patent US20230295157A1, “3-(1H-IMIDAZOL-2-YL)-2,3,8,8A-TETRAHYDROINDOLIZIN-5(1H)-ONE DERIVATIVES USEFUL AS FACTOR XIA INHIBITORS” (JANSSEN PHARMACEUTICA NV, priority 2020, published 2023)
Read-outs that look alike come from different tables or passages of the source.

What was measured:
human plasma kallikrein = human plasma kallikrein (Homo sapiens (Human), UniProt P03952); assay: Kallikrein inhibition assay (FLINT) utilizing a quenched AMC peptide substrate; assay type: biochemical; conditions: 30 min preincubation, read-out: Kallikrein Kin Inh IC50
Chain of human plasma kallikrein (P03952 391-638): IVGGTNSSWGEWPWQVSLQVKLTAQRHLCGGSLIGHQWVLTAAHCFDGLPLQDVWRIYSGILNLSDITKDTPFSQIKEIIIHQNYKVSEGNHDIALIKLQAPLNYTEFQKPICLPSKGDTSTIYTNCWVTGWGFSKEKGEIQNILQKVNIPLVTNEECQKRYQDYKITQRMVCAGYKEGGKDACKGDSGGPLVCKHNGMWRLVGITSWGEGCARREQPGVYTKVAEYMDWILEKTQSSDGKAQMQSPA
Chain of human plasma kallikrein (P03952 20-390 partner): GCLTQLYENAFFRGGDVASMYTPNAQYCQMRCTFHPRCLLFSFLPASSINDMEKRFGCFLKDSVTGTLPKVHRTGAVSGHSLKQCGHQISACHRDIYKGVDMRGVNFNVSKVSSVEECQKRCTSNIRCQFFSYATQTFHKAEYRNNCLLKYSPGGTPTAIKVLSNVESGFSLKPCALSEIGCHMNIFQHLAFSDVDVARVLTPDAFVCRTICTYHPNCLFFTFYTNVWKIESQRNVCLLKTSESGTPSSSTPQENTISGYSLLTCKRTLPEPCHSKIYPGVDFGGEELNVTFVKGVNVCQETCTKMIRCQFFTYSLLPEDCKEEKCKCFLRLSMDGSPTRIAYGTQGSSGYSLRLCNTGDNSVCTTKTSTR
Method in brief: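 Enzyme (2 nM final) pre-incubated 30 min at room temperature with compound (11-point, 3-fold, top 1 μM, 2% DMSO), then 50 μM Z-Gly-Pro-Arg-AMC added in Tris pH 7.5 buffer. Kinetic fluorescence 340/440 nm every 5 min over 30 min; IC50 from 4-parameter logistic fit.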

Factor XIa = Factor XIa (Homo sapiens (Human), UniProt P03951); assay: Factor XIa inhibition assay (FLINT) utilizing a fluorophore-quencher pair peptide substrate; assay type: biochemical; conditions: 30 min preincubation, kinetic reads over 30 min, read-out: FXIa Kin Inh IC50
Chain of Factor XIa (P03951 388-625): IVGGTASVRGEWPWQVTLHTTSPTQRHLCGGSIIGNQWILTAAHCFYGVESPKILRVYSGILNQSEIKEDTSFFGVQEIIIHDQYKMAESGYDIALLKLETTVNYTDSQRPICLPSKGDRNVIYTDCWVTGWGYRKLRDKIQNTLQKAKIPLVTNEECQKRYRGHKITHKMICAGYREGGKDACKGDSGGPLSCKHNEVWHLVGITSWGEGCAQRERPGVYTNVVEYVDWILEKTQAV
Chain of Factor XIa (P03951 19-387 partner): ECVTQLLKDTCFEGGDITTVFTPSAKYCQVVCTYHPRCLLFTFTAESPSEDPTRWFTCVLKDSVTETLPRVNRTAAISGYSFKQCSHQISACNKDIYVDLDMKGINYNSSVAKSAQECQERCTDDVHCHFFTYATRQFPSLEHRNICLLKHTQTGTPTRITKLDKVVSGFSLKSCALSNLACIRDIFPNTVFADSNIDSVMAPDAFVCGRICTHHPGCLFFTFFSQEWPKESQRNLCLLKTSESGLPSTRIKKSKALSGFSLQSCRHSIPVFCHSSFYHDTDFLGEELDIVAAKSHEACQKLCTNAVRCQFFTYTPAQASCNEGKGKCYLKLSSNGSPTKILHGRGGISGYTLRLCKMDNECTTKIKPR
Method in brief: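 FXIa ([…]) preincubated 30 min with compound (11-point 3-fold dilution, top 100 nM, 2% DMSO), then 15 μM quenched FXI Arg146-based peptide added; Tris pH 7.5, CaCl2, BSA, CHAPS. Fluorescence 485/520 nm read kinetically every 5 min over 30 min at RT; IC50 by 4-parameter fit.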

[1] = kinetic reads over 30 min, Z-Gly-Pro-Arg-AMC substrate 50 μM
[2] = 5Fam-KLTRAETV-K5Tamra substrate 15 μM
[3] = 5Fam-[…]-K5Tamra substrate 15 μM

Structure (SMILES)	IC50 (human plasma kallikrein; [1]) [µM]	IC50 (Factor XIa; [2]) [nM]	IC50 (human plasma kallikrein; μM, kinetic reads) [µM]	IC50 (Factor XIa; [3]) [nM]
Nc1cc(-c2[nH]c([C@@H]3CC[C@@H]4CC(c5c(-n6cnnn6)ccc(Cl)c5F)=CC(=O)N43)nc2F)c(Cl)cn1 [Example 1, (3S,8aR)-3-[5-(2-Amino-5-chloro-4-pyridyl)-4-fluoro-1H-imidazol-2-yl]-7-[3-chloro-2-fluoro-6-(tetrazol-1-yl)phenyl]-2,3,8,8a-tetrahydro-1H-indolizin-5-one]	0.0679	12.6	–	–
O=C(Nc1ccccc1-c1c[nH]c([C@@H]2CC[C@@H]3CC(c4c(-n5cnnn5)ccc(Cl)c4F)=CC(=O)N32)n1)C1CC1 [Example 369, N-(2-(2-((3S,8aR)-7-(3-chloro-2-fluoro-6-(1H-tetrazol-1-yl)phenyl)-5-oxo-1,2,3,5,8,8a-hexahydroindolizin-3-yl)-1H-imidazol-4-yl)phenyl)cyclopropanecarboxamide]	0.0005	0.2	–	–
O=C1CCc2cc(-c3cnc([C@@H]4CCC5CC(c6c(-n7cnnn7)ccc(Cl)c6F)=CC(=O)N54)[nH]3)ccc2N1 (stereo partly drawn) [Example 311, 6-(2-((3S)-7-(3-Chloro-2-fluoro-6-(1H-tetrazol-1-yl)phenyl)-5-oxo-1,2,3,5,8,8a-hexahydroindolizin-3-yl)-1H-imidazol-5-yl)-3,4-dihydroquinolin-2(1H)-one]	0.0007	0.3	–	–
Nc1ccc(-c2c[nH]c([C@@H]3CCC4CC(c5c(-c6cnc[nH]6)ccc(Cl)c5F)=CC(=O)N43)n2)c(F)n1 (stereo partly drawn) [Example 364, (3S)-3-(4-(6-Amino-2-fluoropyridin-3-yl)-1H-imidazol-2-yl)-7-(3-chloro-2-fluoro-6-(1H-imidazol-5-yl)phenyl)-2,3,8,8a-tetrahydroindolizin-5(1H)-one]	0.61	87	–	–
N#CCc1nccc(-c2c[nH]c([C@@H]3CC[C@@H]4CC(c5c(-n6cnnn6)ccc(Cl)c5F)=CC(=O)N43)n2)c1F [Example 176, 2-(4-(2-((3S,8aR)-7-(3-chloro-2-fluoro-6-(1H-tetrazol-1-yl)phenyl)-5-oxo-1,2,3,5,8,8a-hexahydroindolizin-3-yl)-1H-imidazol-4-yl)-3-fluoropyridin-2-yl)acetonitrile]	0.0285	4	–	–
O=C1Cc2ccc(-c3cnc([C@@H]4CCC5CC(c6c(-n7cnnn7)ccc(Cl)c6F)=CC(=O)N54)[nH]3)c(F)c2N1 (stereo partly drawn) [Example 383, 6-(2-((3S)-7-(3-chloro-2-fluoro-6-(1H-tetrazol-1-yl)phenyl)-5-oxo-1,2,3,5,8,8a-hexahydroindolizin-3-yl)-1H-imidazol-5-yl)-7-fluoroindolin-2-one]	0.0126	3.1	–	–
C[C@@H](O)c1nccc(-c2[nH]c([C@@H]3CC[C@@H]4CC(c5cc(Cl)ccc5-n5cnnn5)=CC(=O)N43)nc2F)c1F (relative stereo) [Example 45, (3S,8aR)-7-(5-chloro-2-(1H-tetrazol-1-yl)phenyl)-3-(4-fluoro-5-(3-fluoro-2-((R*)-1-hydroxyethyl)pyridin-4-yl)-1H-imidazol-2-yl)-2,3,8,8a-tetrahydroindolizin-5(1H)-one]	0.0413	–	–	4.4
C[C@H](O)c1nccc(-c2[nH]c([C@@H]3CC[C@@H]4CC(c5cc(Cl)ccc5-n5cnnn5)=CC(=O)N43)nc2F)c1F (relative stereo) [Example 46, (3S,8aR)-7-(5-chloro-2-(1H-tetrazol-1-yl)phenyl)-3-(4-fluoro-5-(3-fluoro-2-((S*)-1-hydroxyethyl)pyridin-4-yl)-1H-imidazol-2-yl)-2,3,8,8a-tetrahydroindolizin-5(1H)-one]	0.0355	–	–	5.4
CC(=O)N[C@H](C)c1ccc(-c2[nH]c([C@@H]3CCC4CC(c5c(-n6cnnn6)ccc(Cl)c5F)=CC(=O)N43)nc2F)cc1 (stereo partly drawn) [Example 11, N-[(1R)-1-[4-[2-[(3S)-7-[3-Chloro-2-fluoro-6-(tetrazol-1-yl)phenyl]-5-oxo-2,3,8,8a-tetrahydro-1H-indolizin-3-yl]-4-fluoro-1H imidazol-5-yl]phenyl]ethyl]acetamide]	0.0305	11.4	–	–
O=C(Nc1cnc(C(F)(F)F)cc1-c1cnc([C@@H]2CC[C@H]3CC(c4c(-n5cnnn5)ccc(Cl)c4F)=CC(=O)N32)[nH]1)C1CC1 [Example 242, N-[4 [2-[(3S,8aS)-7-[3-Chloro-2-fluoro-6-(tetrazol-1-yl)phenyl]-5-oxo-2,3,8,8a-tetrahydro-1H-indolizin-3-yl]-1H-imidazol-5-yl]-6-(trifluoromethyl)-3-pyridyl]cyclopropanecarboxamide]	0.0187	10.8	–	–
COc1ccccc1-c1c[nH]c([C@@H]2CCC3CC(c4c(-n5cnnn5)ccc(Cl)c4F)=CC(=O)N32)n1 (stereo partly drawn) [Example 317, (3S)-7-(3-Chloro-2-fluoro-6-(1H-tetrazol-1-yl)phenyl)-3-(4-(2-methoxyphenyl)-1H-imidazol-2-yl)-2,3,8,8a-tetrahydroindolizin-5(1H)-one]	0.0129	5.3	–	–
O=C(Nc1ccsc1-c1c[nH]c([C@@H]2CCC3CC(c4c(-n5cnnn5)ccc(Cl)c4F)=CC(=O)N32)n1)C1CC1 (stereo partly drawn) [Example 248, N-[2-[2-[(3S)-7-[3-Chloro-2-fluoro-6-(tetrazol-1-yl)phenyl]-5-oxo-2,3,8,8a-tetrahydro-1H-indolizin-3-yl]-1H-imidazol-4-yl]-3-thienyl]cyclopropanecarboxamide]	0.0015	1	–	–

The next lines start with the values.

IC50 (human plasma kallikrein; [1]) [µM]	IC50 (Factor XIa; [2]) [nM]	IC50 (human plasma kallikrein; μM, kinetic reads) [µM]	IC50 (Factor XIa; [3]) [nM]	Structure (SMILES)
–	134	1.2	–	NC(=O)c1ccccc1-c1cnc([C@@H]2CCC3CC(c4c(-n5cnnn5)ccc(Cl)c4F)=CC(=O)N32)[nH]1 (stereo partly drawn) [Example 290, 2-(2-((3S)-7-(3-Chloro-2-fluoro-6-(1H-tetrazol-1-yl)phenyl)-5-oxo-1,2,3,5,8,8a-hexahydroindolizin-3-yl)-1H-imidazol-5-yl)benzamide]
0.0074	2.4	–	–	O=C1C=C(c2c(-n3cnnn3)ccc(Cl)c2F)C[C@H]2CC[C@@H](c3ncc(-c4c[nH]c5cnccc45)[nH]3)N12 (single isomer, unassigned) [Example 19]
0.0435	3.1	–	–	O=C1C=C(c2c(-n3cnnn3)ccc(Cl)c2F)C[C@H]2CC[C@@H](c3ncc(-c4ccnc(C[C@@H](O)C(F)(F)F)c4F)[nH]3)N12 (single isomer, unassigned) [Example 144, (3S,8aR)-7-(3-chloro-2-fluoro-6-(1H-tetrazol-1-yl)phenyl)-3-(5-(3-fluoro-2-((*R)-3,3,3-trifluoro-2-hydroxypropyl)pyridin-4-yl)-1H-imidazol-2-yl)-2,3,8,8a-tetrahydroindolizin-5(1H)-one]
0.0049	0.3	–	–	Nc1ccc(-c2cnc([C@@H]3CC[C@H]4CC(c5c(-n6cnnn6)ccc(Cl)c5F)=CC(=O)N43)[nH]2)c(Cl)n1 [Example 352, (3S,8aS)-3-(5-(6-Amino-2-chloropyridin-3-yl)-1H-imidazol-2-yl)-7-(3-chloro-2-fluoro-6-(1H-tetrazol-1-yl)phenyl)-2,3,8,8a-tetrahydroindolizin-5(1H)-one]
0.245	–	–	60.1	Cc1nc([C@@H]2CC[C@@H]3CC(c4c(-n5cnnn5)ccc(Cl)c4F)=CC(=O)N32)[nH]c1-c1ccnc(CO)c1F (single isomer, unassigned) [Example 35]
0.0066	0.8	–	–	CC(C)(O)COc1nccc(-c2cnc([C@@H]3CC[C@@H]4CC(c5c(-n6cnnn6)ccc(Cl)c5F)=CC(=O)N43)[nH]2)c1F [Example 166, (3S,8aR)-7-[3-chloro-2-fluoro-6-(tetrazol-1-yl)phenyl]-3-[5-[3-fluoro-2-(2-hydroxy-2-methyl-propoxy)-4-pyridyl]-1H-imidazol-2-yl]-2,3,8,8a-tetrahydro-1H-indolizin-5-one]
0.0167	–	–	1.8	[2H]C([2H])(O)c1nccc(-c2cnc([C@@H]3CCC4CC(c5c(-n6cnnn6)ccc(Cl)c5F)=CC(=O)N43)[nH]2)c1Cl (stereo partly drawn) [Example 189, (3S)-3-(5-(3-chloro-2-(hydroxymethyl-d2)pyridin-4-yl)-1H-imidazol-2-yl)-7-(3-chloro-2-fluoro-6-(1H-tetrazol-1-yl)phenyl)-2,3,8,8a-tetrahydroindolizin-5(1H)-one]
0.0074	0.5	–	–	CNc1ccc(-c2cnc([C@@H]3CC[C@H]4CC(c5c(-n6cnnn6)ccc(Cl)c5F)=CC(=O)N43)[nH]2)c(F)n1 [Example 291, (3S,8aS)-7-(3-Chloro-2-fluoro-6-(1H-tetrazol-1-yl)phenyl)-3-(5-(2-fluoro-6-(methylamino)pyridin-3-yl)-1H-imidazol-2-yl)-2,3,8,8a-tetrahydroindolizin-5(1H)-one]
0.0028	1.7	–	–	O=C1C=C(c2c(-n3cnnn3)ccc(Cl)c2F)CC2CCC(c3ncc(-c4ccnc(-c5ccn[nH]5)c4)[nH]3)N12 (centres unmarked) [Example 53, 3-(5-(2-(1H-pyrazol-5-yl)pyridin-4-yl)-1H-imidazol-2-yl)-7-(3-chloro-2-fluoro-6-(1H-tetrazol-1-yl)phenyl)-2,3,8,8a-tetrahydroindolizin-5(1H)-one]
0.371	31	–	–	Nc1ccc(-c2cnc([C@@H]3CC[C@@H]4CC(c5c(-n6cnnn6)ccc(Cl)c5F)=CC(=O)N43)[nH]2)c(C(F)(F)F)n1 [Example 167, (3S,8aR)-3-(5-(6-amino-2-(trifluoromethyl)pyridin-3-yl)-1H-imidazol-2-yl)-7-(3-chloro-2-fluoro-6-(1H-tetrazol-1-yl)phenyl)-2,3,8,8a-tetrahydroindolizin-5(1H)-one]
